Measured values from patent US10646570B2, “Induced photodynamic therapy using nanoparticle scintillators as transducers” (UNIVERSITY OF GEORGIA RESEARCH FOUNDATION, INC., priority 2014, dated 2020).

Test: 1O2 production in solutions, SOSG indicator, X-ray irradiation
Conditions: either with or without X-ray
Procedure: 1 mL of 0.05 mg M-SAO@SiO2/mL was added in a quartz cuvette (equilibrated with air at room temperature) containing 1 μM of SOSG. For controls, SAO, MC540, and water were analyzed. The solutions were irradiated by X-ray (at an irradiance of 1 Sv/h for 20 min, with a 1-min intermission after each 5-min irradiation cycle. The fluorescence signals (ex/em: 504/525 nm) were measured on a Hitachi F-7000 fluorescence spectrophotometer.
There is a significant overlap between the XEOL of SAO and the excitation wavelength of MC540 (FIG. 9A). Therefore, the ability of M-SAO@SiO2 nanoparticles irradiated by X-ray to relay energy in the form of visible photons to MC540 and as a result, producing ^1O2 was investigated. A common ^1O2 indicator, singlet oxygen sensor green (SOSG, Invitrogen) was used to investigate this effect. SOSG is a fluorescent compound which undergoes a structural change in the presence of ^1O2. The process is accompanied by an increase of fluorescence (ex/em: 504/525 nm). Therefore, by measuring the fluorescence change, the ^1O2 generation in solutions or cells can be monitored. Using SOSG, ^1O2 generation with a M-SAO@SiO2 nanoparticle solution (50 μg/mL) under X-ray irradiation was studied (1 Sv/h, FIG. 9B). Compared to the background, the intensity of 525 nm fluorescence was increased by 8, 25, 35, and 45% after 5, 10, 15, and 20 min X-ray irradiation, respectively (FIG. 9B).

Question: For `CCCCN1C(=O)C(=C/C=C/C=C2\Oc3ccccc3N2CCCS(=O)(=O)[O-])C(=O)N(CCCC)C1=S.[Na+]` [MC540, merocyanine 540], which “increase in fluorescence (1O2, SOSG)” value is on record?
Answer: The value was “minimal increase in fluorescence”.
